IC50 data for 20 molecules are collected here from patent US11299487B2, “Compounds and compositions as modulators of TLR signaling” (Neuropore Therapies, Inc., priority 2019, dated 2022).

Type in all cases: cell-based
One experiment deals with T1, human TLR9 (Homo sapiens, UniProt Q9NR96).
T1 construct: host or cells: HEK-Blue hTLR9 (HEK-293)
T1 sequence (Q9NR96 26-1032): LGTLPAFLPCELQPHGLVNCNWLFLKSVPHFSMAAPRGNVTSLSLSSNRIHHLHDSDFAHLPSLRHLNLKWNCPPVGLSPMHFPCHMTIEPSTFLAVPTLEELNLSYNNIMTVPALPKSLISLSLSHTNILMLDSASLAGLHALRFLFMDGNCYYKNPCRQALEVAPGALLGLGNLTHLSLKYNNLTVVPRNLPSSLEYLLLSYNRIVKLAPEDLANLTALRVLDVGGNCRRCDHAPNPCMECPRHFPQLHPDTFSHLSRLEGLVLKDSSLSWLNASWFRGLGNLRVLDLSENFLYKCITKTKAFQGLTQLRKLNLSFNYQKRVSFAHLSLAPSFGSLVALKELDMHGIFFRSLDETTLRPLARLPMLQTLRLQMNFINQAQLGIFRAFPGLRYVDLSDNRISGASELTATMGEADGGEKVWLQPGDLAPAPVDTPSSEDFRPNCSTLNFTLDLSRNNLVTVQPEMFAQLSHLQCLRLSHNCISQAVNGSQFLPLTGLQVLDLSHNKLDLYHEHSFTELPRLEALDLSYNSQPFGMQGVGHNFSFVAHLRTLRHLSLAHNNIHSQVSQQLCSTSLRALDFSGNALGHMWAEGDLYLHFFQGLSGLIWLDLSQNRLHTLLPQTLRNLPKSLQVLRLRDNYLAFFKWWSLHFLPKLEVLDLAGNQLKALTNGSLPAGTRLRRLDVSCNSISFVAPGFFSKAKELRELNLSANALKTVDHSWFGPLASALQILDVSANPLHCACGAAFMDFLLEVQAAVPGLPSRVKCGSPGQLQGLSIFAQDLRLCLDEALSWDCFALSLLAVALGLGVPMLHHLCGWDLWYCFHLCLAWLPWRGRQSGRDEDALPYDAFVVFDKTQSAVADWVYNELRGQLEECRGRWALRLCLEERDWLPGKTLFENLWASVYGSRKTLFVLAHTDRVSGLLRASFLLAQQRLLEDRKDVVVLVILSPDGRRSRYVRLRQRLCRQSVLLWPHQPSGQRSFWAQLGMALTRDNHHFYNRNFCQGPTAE
Description: HEK-Blue hTLR9 assay (SEAP reporter) with agonist ODN 2006. The following applies: Table A; HEK-Blue hTLR9 cells, ~3×EC50 ODN 2006, 18 h; exact values 8-point dilutions, approximate (~ or <) 4-point dilutions; read-out: ~IC50 (μM) with ODN2006. Here is the method:
Synthetic ODNs (ODN 2006 (ODN7909), class B CpG oligonucleotide, TLR9 agonist) was obtained from InvivoGen and was dissolved in endotoxin-free water to a concentration 500 μM, vortexed until complete solubilization, and stored in aliquots at −20° C. Prior to addition to cells, an aliquot of the dissolved ligand was vortexed shortly and then was diluted in medium to 50 μM. The EC50 of the agonist for each assay run was determined by using 3-fold dilutions from the starting concentration 10 μM.
Test compounds were solubilized fresh to 10-20 mM stocks in DMSO and sonicated for 5-10 minutes in a water bath sonicator. Serial dilutions were prepared in DMSO, and then diluted in medium. The final concentration of DMSO used in the assay was 1%.
HEK-Blue hTLR9 reporter cells (InvivoGen) are HEK-293 cells stably expressing both the human TLR9 gene and a secreted embryonic alkaline phosphatase (SEAP) reporter construct downstream of NFκB promotor sites. HEK-Blue hTLR9 cells were cultured according to manufacturer's protocol using Dulbecco's Modified Eagle Medium (DMEM; Gibco) containing 1× GlutaMax (Gibco), 10% heat-inactivated Fetal Bovine Serum (Gibco), Pen-Strep (50 U/mL penicillin, 50 μg/mL streptomycin, Gibco), 100 μg/mL Normocin (InvivoGen), and the selective antibiotics, 10 μg/mL Blasticidin (InvivoGen), and 100 μg/mL Zeocin (InvivoGen). Quanti-Blue reagent (InvivoGen) for detection and quantification of secreted alkaline phosphatase was dissolved in 100 mL of endotoxin-free water, warmed to 37° C. for 30 minutes and then filtered using a 0.2 μm membrane.
On day 1, 50 μL of each test compound dilution in duplicates or a vehicle control was added to each well of a 96-well plate followed by addition of 150 μL of HEK-Blue hTLR9 cell suspension (1×10^5 cells/well) and incubated at 37° C./5% CO2 for 2 h. Next, 50 μL of an approximate 3×EC50 concentration of TLR9 agonist, ODN 2006, was added to the wells containing test compounds or the vehicle control. The plates were then incubated at 37° C./5% CO2 for 18 h. For each assay run, vehicle-treated HEK-Blue hTLR9 cells were treated with serial dilutions of agonist to determine EC50 values for the respective run.
On day 2, secreted alkaline phosphatase (SEAP) activity was detected in cell culture supernatants. In brief, 30 μL was collected from each well and transferred to a 96-well plate. Next, 200 μL of Quanti-Blue detection reagent was added to each well. Plates were incubated at 37° C. for 60 min. and SEAP activity was assessed by spectrophotometer OD reading at 655 nm. Table A and Table B show the activities of the compounds tested in HEK-Blue hTLR9 cells against ODN 2006. The activities of the compounds against ODN 2006 are presented as IC50 values which were defined as concentrations of the compounds where percent inhibition of the signal induced by agonist is equal to 50. Exact IC50 values were calculated based on 8-point dilutions for each compound. Approximate IC50 values (˜ or <) were calculated based on 4-point dilutions for each compound.

The target of experiment [1] is T2, human TLR2 (Homo sapiens, UniProt O60603).
T2 construct: host or cells: HEK-Blue hTLR2 (HEK-293)
Description: HEK-Blue hTLR2 antagonism assay (SEAP reporter) with agonist Pam3CSK4 (TLR1/2 agonist). The settings on record: Table A; HEK-Blue hTLR2 cells, ~3×EC50 Pam3CSK4, 18 h, SEAP OD 655 nm, 8-point dilutions.

In experiment [2] the target is T2, human TLR2. Put plainly: HEK-Blue hTLR2 antagonism assay (SEAP reporter) with agonist Pam2CSK4 (TLR2/6 agonist). The settings on record: Table A; HEK-Blue hTLR2 cells, ~3×EC50 Pam2CSK4, 18 h, SEAP OD 655 nm, 8-point dilutions.

T2 sequence (O60603 21-784): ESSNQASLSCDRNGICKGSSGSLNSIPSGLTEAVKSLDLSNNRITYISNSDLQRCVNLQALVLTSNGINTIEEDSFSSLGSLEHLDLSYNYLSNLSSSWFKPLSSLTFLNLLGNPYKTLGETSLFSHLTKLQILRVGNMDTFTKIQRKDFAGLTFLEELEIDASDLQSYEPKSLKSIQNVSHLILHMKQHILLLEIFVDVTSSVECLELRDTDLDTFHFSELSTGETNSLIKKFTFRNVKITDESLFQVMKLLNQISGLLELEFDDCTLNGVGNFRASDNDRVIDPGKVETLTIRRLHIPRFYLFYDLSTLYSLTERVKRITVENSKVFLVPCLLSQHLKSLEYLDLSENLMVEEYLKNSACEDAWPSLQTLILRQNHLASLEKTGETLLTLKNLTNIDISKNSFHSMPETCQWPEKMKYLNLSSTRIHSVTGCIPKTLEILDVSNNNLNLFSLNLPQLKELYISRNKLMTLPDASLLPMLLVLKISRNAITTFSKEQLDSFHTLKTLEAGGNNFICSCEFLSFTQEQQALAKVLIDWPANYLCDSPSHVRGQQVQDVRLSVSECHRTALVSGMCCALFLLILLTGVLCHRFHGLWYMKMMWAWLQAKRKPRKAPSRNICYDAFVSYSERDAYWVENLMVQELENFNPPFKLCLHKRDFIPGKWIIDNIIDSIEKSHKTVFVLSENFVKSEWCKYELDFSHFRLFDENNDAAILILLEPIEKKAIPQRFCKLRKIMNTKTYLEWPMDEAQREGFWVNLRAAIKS

The term IC50 denotes the concentration that gives 50% inhibition. Turning to `COc1cc(-c2cnn(-c3ccccc3)c2)cc(C=O)c1O` [Compound A1, 2-hydroxy-3-methoxy-5-(1-phenyl-1H-pyrazol-4-yl)benzaldehyde], the values for the IC50 on human TLR9, at human TLR2 [1] and at human TLR2 [2] were about 2 µM, 0.9 µM and 2.2 µM, respectively.
In the same order, the values of `COc1cc(-c2cnn(CCN3CCOCC3)c2)cc(C=O)c1O` [Compound A2, 2-hydroxy-3-methoxy-5-(1-(2-morpholinoethyl)-1H-pyrazol-4-yl)benzaldehyde] are over 33 µM, over 100 µM and over 100 µM.
For the molecule `COCCCn1cc(-c2cc(C=O)c(O)c(OC)c2)cn1` [Compound A7, 2-hydroxy-3-methoxy-5-(1-(3-methoxypropyl)-1H-pyrazol-4-yl)benzaldehyde], the IC50 is over 33 µM at human TLR9, 42.3 µM at human TLR2 [1] and 36.8 µM on human TLR2 [2].
For `COc1cc(-c2cnn(Cc3ccccn3)c2)cc(C=O)c1O` [Compound A8, 2-hydroxy-3-methoxy-5-(1-(pyridin-2-ylmethyl)-1H-pyrazol-4-yl)benzaldehyde], the IC50 at human TLR9 was over 33 µM; at human TLR2 [1], over 100 µM; at human TLR2 [2], 85.5 µM.
For `Cc1cc(-c2cnn(-c3ccccc3)c2)cc(C#N)c1O` [Compound A12, 2-hydroxy-3-methyl-5-(1-phenyl-1H-pyrazol-4-yl)benzonitrile], in that order: over 33 µM, over 100 µM and over 100 µM.
For `Oc1cc(-c2cnn(-c3ccccc3)c2)cc(F)c1F` [Compound A13, 2,3-difluoro-5-(1-phenyl-1H-pyrazol-4-yl)phenol], in that order: over 33 µM, 39.7 µM and 45.7 µM.
For `Cc1cc(-c2cnn(-c3ccccc3)c2)cc(O)c1F` [Compound A14, 2-fluoro-3-methyl-5-(1-phenyl-1H-pyrazol-4-yl)phenol], in that order: over 33 µM, 42.6 µM and 42.2 µM.
As for `Oc1c(F)cc(-c2cnn(-c3ccccc3)c2)cc1Cl` [Compound A15, 2-chloro-6-fluoro-4-(1-phenyl-1H-pyrazol-4-yl)phenol], the half-maximal inhibitory concentration (IC50) is over 33 µM at human TLR9, over 100 µM on human TLR2 [1] and over 100 µM at human TLR2 [2].
For `COc1cc(-c2cnn(-c3ccccc3)c2)cc(O)c1F` [Compound A16, 2-fluoro-3-methoxy-5-(1-phenyl-1H-pyrazol-4-yl)phenol], the IC50 is over 33 µM at human TLR9, over 100 µM on human TLR2 [1] and over 100 µM at human TLR2 [2].
Consider `O=Cc1cc(-c2cnn(-c3ccc(N4CCCC4)cc3)c2)cc(F)c1O` [Compound A19, 3-fluoro-2-hydroxy-5-(1-(4-(pyrrolidin-1-yl)phenyl)-1H-pyrazol-4-yl)benzaldehyde], for which the values for the IC50 at human TLR9, on human TLR2 [1] and at human TLR2 [2] were under 1.2 µM, 0.5 µM and 0.5 µM, respectively.
Consider `O=Cc1cc(-c2cnn(-c3cccc(N4CCCC4)c3)c2)cc(F)c1O` [Compound A22, 3-fluoro-2-hydroxy-5-(1-(3-(pyrrolidin-1-yl)phenyl)-1H-pyrazol-4-yl)benzaldehyde], for which the IC50 was over 10 µM on human TLR9, 0.9 µM at human TLR2 [1] and 0.9 µM at human TLR2 [2].
Turning to `COc1cc(-c2ccn(-c3ccccc3)n2)cc(C=O)c1O` [Compound A25, 2-hydroxy-3-methoxy-5-(1-phenyl-1H-pyrazol-3-yl)benzaldehyde], the IC50 at human TLR9 was about 3 µM; on human TLR2 [1], 1.2 µM; on human TLR2 [2] it was 1.9 µM.
In the same order, the values of `O=Cc1cc(-c2ccn(-c3ccccc3)n2)cc(F)c1O` [Compound A26, 3-fluoro-2-hydroxy-5-(1-phenyl-1H-pyrazol-3-yl)benzaldehyde] are about 3 µM, 2.7 µM and 2.9 µM.
Take `O=Cc1cc(-c2ccn(-c3ccc(N4CCCC4)cc3)n2)cc(F)c1O` [Compound A27, 3-fluoro-2-hydroxy-5-(1-(4-(pyrrolidin-1-yl)phenyl)-1H-pyrazol-3-yl)benzaldehyde]: the 50% inhibitory concentration (IC50) on human TLR9 was under 1.2 µM; on human TLR2 [1], 0.8 µM; on human TLR2 [2], 0.9 µM.
For `CN1CCN(/N=C/c2cc(-c3ccn(-c4ccccc4)n3)cc(F)c2O)CC1` [Compound A33, (E)-2-fluoro-6-(((4-methylpiperazin-1-yl)imino)methyl)-4-(1-phenyl-1H-pyrazol-3-yl)phenol], in that order: about 4 µM, 3.6 µM and 4 µM.
For `O=Cc1cc(-n2cc(-c3ccc(N4CCCC4)cc3)nn2)cc(F)c1O` [Compound A42, 3-fluoro-2-hydroxy-5-(4-(4-(pyrrolidin-1-yl)phenyl)-1H-1,2,3-triazol-1-yl)benzaldehyde], the IC50 at human TLR9 worked out at 0.1 µM; at human TLR2 [1], 0.3 µM; on human TLR2 [2], 0.4 µM.
In the same order, the values of `O=Cc1cc(-c2cn(-c3ccc(N4CCCC4)cc3)nn2)cc(F)c1O` [Compound A43, 3-fluoro-2-hydroxy-5-(1-(4-(pyrrolidin-1-yl)phenyl)-1H-1,2,3-triazol-4-yl)benzaldehyde] are under 1.2 µM, 1.1 µM and 1.1 µM.
For `O=Cc1cc(-n2cc(-c3cccc(N4CCCC4)c3)nn2)cc(F)c1O` [Compound A44, 3-fluoro-2-hydroxy-5-(4-(3-(pyrrolidin-1-yl)phenyl)-1H-1,2,3-triazol-1-yl)benzaldehyde], in that order: about 1.2 µM, 0.7 µM and 1 µM.
Turning to `O=Cc1cc(-c2cn(-c3ccc(N4CCCC4)cc3)cn2)cc(F)c1O` [Compound A47, 3-fluoro-2-hydroxy-5-(1-(4-(pyrrolidin-1-yl)phenyl)-1H-imidazol-4-yl)benzaldehyde], the figures for the half-inhibitory concentration (IC50) at human TLR9, at human TLR2 [1] and on human TLR2 [2] were under 1.2 µM, 1.3 µM and 2.3 µM, respectively.
In the same order, the values of `O=Cc1cc(-c2cc(-c3ccc(N4CCCC4)cc3)cs2)cc(F)c1O` [Compound A51, 3-fluoro-2-hydroxy-5-(4-(4-(pyrrolidin-1-yl)phenyl)thiophen-2-yl)benzaldehyde] are under 1.2 µM, 0.7 µM and 1.7 µM.
